tested on: JAK1-dependent STAT6 phosphorylation downstream of IL-13 stimulation in TF-1 human erythroleukemia cells; experiment: cells; details: TF-1, read-out: IL-13-pSTAT6 IC50

For `O=C(c1ccc(Nc2nc3c(N4CCC(O)(c5ccc(Cl)cc5)CC4)cccn3n2)cc1)N1CCN2CCCC2C1` (stereo not drawn) [Example 1-168, 3,4,6,7,8,8a-hexahydro-1H-pyrrolo[1,2-a]pyrazin-2-yl-[4-[[8-[4-(4-chlorophenyl)-4-hydroxy-1-piperidyl]-[1,2,4]triazolo[1,5-a]pyridin-2-yl]amino]phenyl] methanone], which IC50 is on record?
The IC50 was 22.6 nM.

For `O=C(NC1CCNC1)c1ccc(Nc2nc3c(N4CCC(O)(c5ccc(Cl)cc5)CC4)cccn3n2)cc1` (stereo not drawn) [Example 1-176, 4-[[8-[4-(4-chlorophenyl)-4-hydroxy-1-piperidyl]-[1,2,4]triazolo[1,5-a]pyridin-2-yl]amino]-N-pyrrolidin-3-yl-benzamide], which IC50 is on record?
Its IC50 is 279 nM.

`O=C(NC1CCCNC1)c1ccc(Nc2nc3c(N4CCC(O)(c5ccc(Cl)cc5)CC4)cccn3n2)cc1` (stereo not drawn) [Example 1-179, 4-[[8-[4-(4-chlorophenyl)-4-hydroxy-1-piperidyl]-[1,2,4]triazolo[1,5-a]pyridin-2-yl]amino]-N-(3-piperidyl)benzamide] was tested. Which IC50 did it give?
The IC50 was 84.3 nM.

For `O=C(NCC1CCNC1)c1ccc(Nc2nc3c(N4CCC(O)(c5ccc(Cl)cc5)CC4)cccn3n2)cc1` (stereo not drawn) [Example 1-180, 4-[[8-[4-(4-chlorophenyl)-4-hydroxy-1-piperidyl]-[1,2,4]triazolo[1,5-a]pyridin-2-yl]amino]-N-(pyrrolidin-3-ylmethyl)benzamide], which IC50 is on record?
Its IC50 is 322 nM.

Which IC50 does the source give for `O=C(NC1CCNCC1)c1ccc(Nc2nc3c(N4CCC(O)(c5ccc(Cl)cc5)CC4)cccn3n2)cc1` [Example 1-181, 4-[[8-[4-(4-chlorophenyl)-4-hydroxy-1-piperidyl]-[1,2,4]triazolo[1,5-a]pyridin-2-yl]amino]-N-(4-piperidyl)benzamide] here?
Its IC50 is 181 nM.

Which IC50 does the source give for `O=C(NCC1CCCNC1)c1ccc(Nc2nc3c(N4CCC(O)(c5ccc(Cl)cc5)CC4)cccn3n2)cc1` (stereo not drawn) [Example 1-183, 4-[[8-[4-(4-chlorophenyl)-4-hydroxy-1-piperidyl]-[1,2,4]triazolo[1,5-a]pyridin-2-yl]amino]-N-(3-piperidylmethyl) benzamide] here?
The IC50 was 536 nM.

Which IC50 does the source give for `O=C(NCC1CCNCC1)c1ccc(Nc2nc3c(N4CCC(O)(c5ccc(Cl)cc5)CC4)cccn3n2)cc1` [Example 1-184, 4-[[8-[4-(4-chlorophenyl)-4-hydroxy-1-piperidyl]-[1,2,4]triazolo[1,5-a]pyridin-2-yl]amino]-N-(4-piperidylmethyl)] here?
The IC50 was 127 nM.

For `O=C(NCCN1CCNCC1)c1ccc(Nc2nc3c(N4CCC(O)(c5ccc(Cl)cc5)CC4)cccn3n2)cc1` [Example 1-187], which IC50 is on record?
The IC50 was 462 nM.

Which IC50 does the source give for `O=C(NCC1CNCCO1)c1ccc(Nc2nc3c(N4CCC(O)(c5ccc(Cl)cc5)CC4)cccn3n2)cc1` (stereo not drawn) [Example 1-188, 4-[[8-[4-(4-chlorophenyl)-4-hydroxy-1-piperidyl]-[1,2,4]triazolo[1,5-a]pyridin-2-yl]amino]-N-(morpholin-2-ylmethyl)benzamide] here?
The IC50 was 34.7 nM.

For `NCC1CCN(C(=O)c2ccc(Nc3nc4c(N5CCC(O)(c6ccc(Cl)cc6)CC5)cccn4n3)cc2)CC1` [Example 1-193, [4-(aminomethyl)-1-piperidyl]-[4-[[8-[4-(4-chlorophenyl)-4-hydroxy-1-piperidyl]-[1,2,4]triazolo[1,5-a]pyridin-2-yl]amino]phenyl] methanone], which IC50 is on record?
Its IC50 is 249 nM.

With `O=C(c1ccc(Nc2nc3c(N4CCC(O)(c5ccc(Cl)cc5)CC4)cccn3n2)cc1)N1CCNCC1CO` (stereo not drawn) [Example 1-196, [4-[[8-[4-(4-chlorophenyl)-4-hydroxy-1-piperidyl]-[1,2,4]triazolo[1,5-a]pyridin-2-yl]amino]phenyl]-[2-(hydroxymethyl)piperazin-1-yl]methanone] as the compound, how does the IC50 read?
The IC50 was 53.1 nM.

With `O=C(c1ccc(Nc2nc3c(N4CCC(O)(c5ccc(Cl)cc5)CC4)cccn3n2)cc1)N1CC2CNCC2C1` (stereo not drawn) [Example 1-197, 2,3,3a,4,6,6a-hexahydro-1H-pyrrolo[3,4-c]pyrrol-5-yl-[4-[[8-[4-(4-chlorophenyl)-4-hydroxy-1-piperidyl]-[1,2,4]triazolo[1,5-a]pyridin-2-yl]amino]phenyl] methanone] as the compound, how does the IC50 read?
Its IC50 is 158 nM.

How did the IC50 turn out when `O=C(N[C@H]1CCCNC1)c1ccc(Nc2nc3c(N4CCC(O)(c5ccc(Cl)cc5)CC4)cccn3n2)cc1` [Example 1-198, 4-[[8-[4-(4-chlorophenyl)-4-hydroxy-1-piperidyl]-[1,2,4]triazolo[1,5-a]pyridin-2-yl]amino]-N-[(3S)-3-piperidyl]benzamide] was run?
The IC50 was 68.5 nM.

With `O=C(c1ccc(Nc2nc3c(N4CCC(O)(c5ccc(Cl)cc5)CC4)cccn3n2)cc1)N1CC2(CCNCC2)C1` [Example 1-199, [4-[[8-[4-(4-chlorophenyl)-4-hydroxy-1-piperidyl]-[1,2,4]triazolo[1,5-a]pyridin-2-yl]amino]phenyl]-(2,7-diazaspiro[3.5]nonan-2-yl)methanone] as the compound, how does the IC50 read?
The IC50 was 106 nM.

`O=C(c1ccc(Nc2nc3c(N4CCC(O)(c5ccc(Cl)cc5)CC4)cccn3n2)cc1)N1CC2(CNC2)C1` [Example 1-203, [4-[[8-[4-(4-chlorophenyl)-4-hydroxy-1-piperidyl]-[1,2,4]triazolo[1,5-a]pyridin-2-yl]amino]phenyl]-(2,6-diazaspiro[3.3]heptan-2-yl)methanone] was tested. Which IC50 did it give?
The IC50 was 342 nM.

How did the IC50 turn out when `O=C(c1ccc(Nc2nc3c(N4CCC(O)(c5ccc(Cl)cc5)CC4)cccn3n2)cc1)N1CCC2(CNC2)C1` [Example 1-205, [4-[[8-[4-(4-chlorophenyl)-4-hydroxy-1-piperidyl]-[1,2,4]triazolo[1,5-a]pyridin-2-yl]amino]phenyl]-(2,6-diazaspiro[3.4]octan-6-yl)methanone] was run?
The IC50 was 522 nM.

Which IC50 does the source give for `O=C(c1ccc(Nc2nc3c(N4CCC(O)(c5ccc(Cl)cc5)CC4)cccn3n2)cc1)N1CCC2(CCNC2)C1` (stereo not drawn) [Example 1-207, [4-[[8-[4-(4-chlorophenyl)-4-hydroxy-1-piperidyl]-[1,2,4]triazolo[1,5-a]pyridin-2-yl]amino]phenyl]-(2,7-diazaspiro[4.4]nonan-2-yl)methanone] here?
Its IC50 is 192 nM.

For `O=C(c1ccc(Nc2nc3c(N4CCC(O)(c5ccc(Cl)cc5)CC4)cccn3n2)cc1)N1CC2(CCCNC2)C1` [Example 1-210, [4-[[8-[4-(4-chlorophenyl)-4-hydroxy-1-piperidyl]-[1,2,4]triazolo[1,5-a]pyridin-2-yl]amino]phenyl]-(2,8-diazaspiro[3.5]nonan-2-yl)methanone], which IC50 is on record?
The IC50 was 43.5 nM.

Which IC50 does the source give for `O=C(c1ccc(Nc2nc3c(N4CCC(O)(c5ccc(Cl)cc5)CC4)cccn3n2)cc1)N1CCC2(CCCNC2)C1` (stereo not drawn) [Example 1-212, [4-[[8-[4-(4-chlorophenyl)-4-hydroxy-1-piperidyl]-[1,2,4]triazolo[1,5-a]pyridin-2-yl]amino]phenyl]-(2,9-diazaspiro[4.5]decan-2-yl)methanone] here?
The IC50 was 196 nM.

For `O=C(c1ccc(Nc2nc3c(N4CCC(O)(c5ccc(Cl)cc5)CC4)cccn3n2)cc1)N1CCC2(CCNCC2)CC1` [Example 1-218, [4-[[8-[4-(4-chlorophenyl)-4-hydroxy-1-piperidyl]-[1,2,4]triazolo[1,5-a]pyridin-2-yl]amino]phenyl]-(3,9-diazaspiro[5.5]undecan-3-yl)methanone], which IC50 is on record?
Its IC50 is 165 nM.

`O=C(NCC1COC2(CCNCC2)C1)c1ccc(Nc2nc3c(N4CCC(O)(c5ccc(Cl)cc5)CC4)cccn3n2)cc1` (stereo not drawn) [Example 1-220, 4-[[8-[4-(4-chlorophenyl)-4-hydroxy-1-piperidyl]-[1,2,4]triazolo[1,5-a]pyridin-2-yl]amino]-N-(1-oxa-8-azaspiro[4.5]decan-3-ylmethyl)benzamide] was tested. Which IC50 did it give?
Its IC50 is 637 nM.

Source: patent US9873709B2 (priority 2013, dated 2018)
